# Results published in PMC7457178 (Biomolecules & Therapeutics, 2020).
# Key:
# [1] = tested on: S.D. rats; experiment: Post-MI chronic heart failure model; type: in vivo, rat; details: for Fractional shortening / Left ventricular ejection fraction: 12 weeks after coronary artery ligation
# [2] = tested on: C57BL/6 mice; experiment: Transverse aortic constriction; details: 30 mg/kg daily oral, 14 days
# [3] = target: T1, GRK2 (Homo sapiens, UniProt P25098); experiment: Inhibitory activity against GRK2; type: biochemical; details: read-out: Inhibition of GRK2
# T1 sequence (P25098 1-689): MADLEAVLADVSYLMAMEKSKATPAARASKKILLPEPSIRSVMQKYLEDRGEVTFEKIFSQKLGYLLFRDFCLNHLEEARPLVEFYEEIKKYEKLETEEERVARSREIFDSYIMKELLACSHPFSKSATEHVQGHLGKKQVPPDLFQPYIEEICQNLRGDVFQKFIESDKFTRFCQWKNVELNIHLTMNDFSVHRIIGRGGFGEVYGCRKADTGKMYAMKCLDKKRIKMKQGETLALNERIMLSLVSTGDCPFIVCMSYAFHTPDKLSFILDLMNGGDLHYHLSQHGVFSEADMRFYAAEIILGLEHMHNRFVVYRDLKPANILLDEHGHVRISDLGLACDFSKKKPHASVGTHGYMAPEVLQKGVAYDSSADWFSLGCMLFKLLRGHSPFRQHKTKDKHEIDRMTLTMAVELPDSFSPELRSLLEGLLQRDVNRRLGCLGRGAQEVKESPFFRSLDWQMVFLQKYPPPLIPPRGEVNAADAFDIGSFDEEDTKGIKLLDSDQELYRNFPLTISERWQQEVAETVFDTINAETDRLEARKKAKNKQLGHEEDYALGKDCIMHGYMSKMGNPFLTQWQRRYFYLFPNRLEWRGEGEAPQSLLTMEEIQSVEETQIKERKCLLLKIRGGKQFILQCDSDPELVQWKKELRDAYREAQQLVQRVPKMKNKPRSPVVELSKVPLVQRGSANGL
# [4] = Cytotoxicity, HFL-1; type: cell-based; details: human, HFL-1 cells
# [5] = Pharmacokinetic study in rats; type: in vivo; details: rat
# [6] = in vivo; details: Sprague-Dawley (S.D.), rat, iv, 10 mg/kg, Kp (ratio of tissue to plasma concentration), 10 mg/kg i.v.
# [7] = Cytotoxicity, NIH3T3; type: cell-based; details: mouse, NIH3T3 cells
# [8] = target: hERG channel (Homo sapiens, UniProt Q12809); experiment: Patch clamp for the hERG channel; type: cell-based
# Sequence of hERG channel (Q12809 whole entry): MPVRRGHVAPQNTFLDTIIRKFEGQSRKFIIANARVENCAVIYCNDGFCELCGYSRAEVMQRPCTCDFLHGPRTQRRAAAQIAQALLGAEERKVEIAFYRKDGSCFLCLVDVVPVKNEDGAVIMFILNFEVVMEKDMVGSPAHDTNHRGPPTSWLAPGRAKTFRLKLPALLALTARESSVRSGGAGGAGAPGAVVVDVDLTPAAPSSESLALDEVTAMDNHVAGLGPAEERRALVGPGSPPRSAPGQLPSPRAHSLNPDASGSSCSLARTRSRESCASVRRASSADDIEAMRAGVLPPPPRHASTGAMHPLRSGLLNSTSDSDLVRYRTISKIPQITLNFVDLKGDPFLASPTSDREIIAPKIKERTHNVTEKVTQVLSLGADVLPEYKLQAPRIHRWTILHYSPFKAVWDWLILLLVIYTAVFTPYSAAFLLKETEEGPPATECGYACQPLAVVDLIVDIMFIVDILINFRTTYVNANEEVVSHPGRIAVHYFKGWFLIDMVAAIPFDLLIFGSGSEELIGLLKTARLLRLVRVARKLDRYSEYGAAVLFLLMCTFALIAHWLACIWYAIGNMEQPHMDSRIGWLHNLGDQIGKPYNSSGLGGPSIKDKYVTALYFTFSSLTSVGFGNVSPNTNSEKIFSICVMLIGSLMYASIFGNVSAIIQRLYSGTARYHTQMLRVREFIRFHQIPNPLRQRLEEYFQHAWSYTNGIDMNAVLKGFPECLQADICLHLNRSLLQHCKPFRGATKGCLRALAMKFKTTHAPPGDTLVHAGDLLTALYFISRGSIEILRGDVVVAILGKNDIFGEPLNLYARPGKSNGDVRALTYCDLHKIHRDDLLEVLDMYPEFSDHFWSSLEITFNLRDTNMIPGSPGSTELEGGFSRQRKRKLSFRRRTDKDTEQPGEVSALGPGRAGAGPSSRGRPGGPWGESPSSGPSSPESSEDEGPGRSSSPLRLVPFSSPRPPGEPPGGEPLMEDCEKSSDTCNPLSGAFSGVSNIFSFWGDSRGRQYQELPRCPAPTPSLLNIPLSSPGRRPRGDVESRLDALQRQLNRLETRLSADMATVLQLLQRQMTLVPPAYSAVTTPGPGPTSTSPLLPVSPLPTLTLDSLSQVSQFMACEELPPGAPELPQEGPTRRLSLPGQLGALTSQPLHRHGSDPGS
# [9] = tested on: HDAC5 phosphorylation; experiment: Angiotensin II-induced HDAC5 phosphorylation in neonatal cardiomyocytes; details: 0.1 µM angiotensin II
# [10] = Cytotoxicity, VERO; type: cell-based; details: African green monkey, VERO cells
# [11] = tested on: neonatal rat cardiomyocytes; experiment: Angiotensin II-induced cellular hypertrophy in neonatal cardiomyocytes; details: 0.1 µM angiotensin II, 4 days
# [12] = Cytotoxicity, L929; type: cell-based; details: mouse, L929 cells
# [13] = 30 mg/kg/day p.o., 12 weeks after MI
# [14] = Sprague-Dawley (S.D.), plasma, iv, 5 mg/kg
# [15] = Sprague-Dawley (S.D.), plasma, po, 300 mg/kg
structure (smiles),measurement,setting,value
"C[C@H](CS)C(=O)N1CCC[C@H]1C(=O)O [captopril, reference compound]",Survival rate,[1]; [13],67%
"NCCCNCCCCNCCCNc1cc2nc(-c3ccccc3Cl)[nH]c(=O)c2cc1F [KR-39038, 7-((3-((4-((3-aminopropyl)amino)butyl)amino)propyl)amino)-2-(2-chlorophenyl)-6-fluoroquinazolin-4(3H)-one]",Reduction in the left ventricular weight,[2],43%
same,inhibition at 10 µM,[3],5.9%
same,EC50,[4],> 100 µM
same,AUC(0-inf),[5]; [14],3.4 ± 1 µg·h/mL
same,Vd,[5]; [14],1.2 ± 0.2 L/kg
same,clearance,[5]; [14],1.6 L/h/kg
same,half-life,[5]; [14],42 ± 2.4 min
same,AUC(0-inf),"[5]; Sprague-Dawley (S.D.), plasma, iv, 10 mg/kg",3.4 ± 1 µg·h/mL
same,AUC(0-inf),[5]; [15],8.9 ± 5 µg·h/mL
same,Cmax,[5]; [15],5.2 ± 2.8 µg/mL
same,Tmax,[5]; [15],42 ± 12 min
same,half-life,[5]; [15],138 ± 174 min
same,F (oral bioavailability),"[5]; 300 mg/kg p.o., 300 mg/kg",4.3 ± 2.4%
same,Survival rate,"[1]; 10 mg/kg/day p.o., 12 weeks after MI",80%
same,Fractional shortening,[1]; 10 mg/kg/day p.o.,23.4 ± 1.6%
same,Left ventricular ejection fraction,[1]; 10 mg/kg/day p.o.,44.3 ± 2.6%
same,Interstitial fibrosis,[1]; [13],16.3 ± 1.6%
same,Myocyte cross-sectional area,[1]; [13],420.1 ± 21.2 µm^2
same,Survival rate,[1]; [13],73%
same,Fractional shortening,[1]; 30 mg/kg/day p.o.,22.6 ± 1.3%
same,Left ventricular ejection fraction,[1]; 30 mg/kg/day p.o.,43.4 ± 2.3%
same,Kp at 4 h,[6]; brain,11.3
same,Kp at 4 h,[6]; heart,16.9
same,Kp at 4 h,[6]; kidney,26.3
same,Kp at 4 h,[6]; liver,10.4
same,Kp at 4 h,[6]; lung,2.7
same,Kp at 4 h,[6]; plasma,1
same,EC50,[7],61.1 µM
same,IC50,[8],> 50 µM
same,Effect on angiotensin II-induced phosphorylation of HDAC5,[9],effectively downregulated
same,EC50,[10],> 100 µM
same,Effect on angiotensin II-induced cellular hypertrophy (cell surface area),[11],concentration-dependently inhibited
same,EC50,[12],89.9 µM
"CC(C)c1ccc2oc3nc(N)c(C(=O)O)cc3c(=O)c2c1 [amlexanox, reference compound]",Effect on angiotensin II-induced phosphorylation of HDAC5,[9],effectively downregulated
same,Effect on angiotensin II-induced cellular hypertrophy (cell surface area),[11],concentration-dependently inhibited
